# Results taken from patent US11634412B2, “3-phosphoglycerate dehydrogenase inhibitors and uses thereof” (Raze Therapeutics, Inc., priority 2016, dated 2023).
# Target: T1, Full length (FL) 3-Phosphoglycerate Dehydrogenase (PHGDH) (Homo sapiens, UniProt O43175)
# T1 construct: Full length (FL) 3-Phosphoglycerate Dehydrogenase (PHGDH) Diaphorase coupled assay (500 uM NAD)
# T1 sequence (O43175 1-533): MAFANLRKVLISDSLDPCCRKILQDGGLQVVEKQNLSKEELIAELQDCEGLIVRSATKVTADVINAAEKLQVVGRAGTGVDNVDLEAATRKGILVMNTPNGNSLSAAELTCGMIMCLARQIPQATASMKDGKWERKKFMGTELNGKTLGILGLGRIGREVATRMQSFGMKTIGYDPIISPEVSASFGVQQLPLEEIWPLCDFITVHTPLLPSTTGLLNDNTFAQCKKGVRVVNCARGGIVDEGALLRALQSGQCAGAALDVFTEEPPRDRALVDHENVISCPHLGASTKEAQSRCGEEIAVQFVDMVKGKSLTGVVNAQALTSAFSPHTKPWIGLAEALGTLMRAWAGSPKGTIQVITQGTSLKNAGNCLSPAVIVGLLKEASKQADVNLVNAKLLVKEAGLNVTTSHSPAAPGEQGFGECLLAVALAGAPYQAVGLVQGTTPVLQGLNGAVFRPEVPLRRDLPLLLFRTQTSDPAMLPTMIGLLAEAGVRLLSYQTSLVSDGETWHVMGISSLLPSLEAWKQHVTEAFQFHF
# Experiment: Full length (FL) PHGDH Diaphorase coupled assay (20 uM NAD)
# Format: biochemical
# Conditions: full-length PHGDH 10 nM, 30° C. 60 minutes, resorufin fluorescence
# Protocol: (§1) PHGDH activity was determined by detecting the NADH produced during the reaction. Diaphorase was used to catalyze the oxidation of NADH with the concomitant reduction of resazurin to the fluorescent product resorufin. Resorufin fluorescence quantitatively reflected the production of NADH by the PHGDH reaction. To drive the forward reaction, two enzymes in the serine synthesis pathway subsequent to PHGDH, Phosphoserine aminotransferase (PSAT1) and phosphoserine phosphatase (PSPH) were also added to the reaction.
row,IC50,SMILES
1,1 to 1000 nM,"Cn1c(C(=O)NC2(c3ccc(-c4nnn[nH]4)cc3)CCOC2)cc2c(Cl)c(Cl)ccc21 (racemic) [I-128 e148, (±)-4,5-Dichloro-1-methyl-N-[3-[4-(1H-tetrazol-5-yl)phenyl]tetrahydro-furan-3-yl]indole-2-carboxamide]"
2,1 to 1000 nM,"Cn1c(C(=O)NC2(c3ccc(CC(=O)O)cc3)CCOC2)cc2c(Cl)c(Cl)ccc21 (racemic) [I-129 e149, (±)-2-[4-[3-[(4,5-Dichloro-1-methyl-indole-2-carbonyl)amino]tetrahydrofuran-3-yl]phenyl]acetic acid]"
3,1 to 1000 nM,CN1CCC(NC(=O)c2cc3c(Cl)c(Cl)ccc3n2C)(c2ccc(C(=O)O)cc2)C1 (racemic) [I-130 e17]
4,1000 to 5000 nM,"Cn1c(C(=O)NC2(c3ccc(C(N)=O)cc3)CCOC2)cc2c(Cl)c(Cl)ccc21 (racemic) [I-131 e144, (±)-N-[3-(4-Carbamoylphenyl)tetrahydrofuran-3-yl]-4,5-dichloro-1-methyl-indole-2-carboxamide]"
5,1000 to 5000 nM,"Cn1c(C(=O)NC2(c3ccc(C#N)cc3)CCOC2)cc2c(Cl)c(Cl)ccc21 (racemic) [I-134 e143, 4,5-dichloro-N-[3-(4-cyanophenyl)tetrahydrofuran-3-yl]-1-methyl-indole-2-carboxamide]"
6,1000 to 5000 nM,"Cn1c(C(=O)NC2(c3ccc(Br)cc3)CCOC2)cc2c(Cl)c(Cl)ccc21 (racemic) [I-135 e142, (±)-N-[3-(4-Bromophenyl)tetrahydrofuran-3-yl]-4,5-dichloro-1-methyl-indole-2-carboxamide]"
7,1 to 1000 nM,"Cn1c(C(=O)NC2(c3ccc(C(=O)O)cc3)CCOC2)cc2c(Cl)c(Cl)ccc21 (racemic) [I-136 e145, (±)-4-[3-[(4,5-Dichloro-1-methyl-indole-2-carbonyl)amino]tetrahydrofuran-3-yl]benzoic acid]"
8,1 to 1000 nM,"Cn1c(C(=O)NC2(c3ccc(C(=O)O)cc3)CCOC2)cc2c(Cl)c(Cl)ccc21 (racemic) [I-137 e141, (±)-4-[3-[(4,5-Dichloro-1-methyl-indole-2-carbonyl)amino]tetrahydrofuran-3-yl]benzoic acid]"
9,5000 to 10000 nM,CNC(=O)NS(=O)(=O)N1CCCC(NC(=O)c2cc3c(Cl)c(Cl)ccc3n2C)(c2cccc(CO)c2)C1 (racemic) [I-138 e16]
10,1000 to 5000 nM,CNC(=O)NS(=O)(=O)N1CCCC(NC(=O)c2cc3c(Cl)c(Cl)ccc3n2C)(c2cccc(C(=O)O)c2)C1 (racemic) [I-139 e14]
11,1 to 1000 nM,CNC(=O)NS(=O)(=O)N1CCCC(NC(=O)c2cc3c(Cl)c(Cl)ccc3n2C)(c2ccc(C(=O)O)cc2)C1 (racemic) [I-140 e15]
12,1000 to 5000 nM,"Cn1c(C(=O)NC2(c3cccc(C(N)=O)c3)CCOC2)cc2c(Cl)c(Cl)ccc21 (racemic) [I-141 e140, (±)-N-[3-(3-Carbamoylphenyl)tetrahydrofuran-3-yl]-4,5-dichloro-1-methyl-indole-2-carboxamide]"
13,5000 to 10000 nM,CNC(=O)NS(=O)(=O)N1CCCC(NC(=O)c2cc3c(Cl)c(Cl)ccc3n2C)(c2cccc(C#N)c2)C1 (racemic) [I-142 e7]
14,1000 to 5000 nM,"Cn1c(C(=O)NC2(c3cccc(C#N)c3)CCOC2)cc2c(Cl)c(Cl)ccc21 (racemic) [I-143 e139, (±)-4,5-dichloro-N-[3-(3-cyanophenyl)tetrahydrofuran-3-yl]-1-methyl-indole-2-carboxamide]"
15,5000 to 10000 nM,CNC(=O)NS(=O)(=O)N1CCCC(NC(=O)c2cc3c(Cl)c(Cl)ccc3n2C)(c2ccccc2)C1 (racemic) [I-146 e6]
16,1000 to 5000 nM,CC(=O)NS(=O)(=O)N1CCC(NC(=O)c2cc3c(Cl)c(Cl)ccc3n2C)(c2ccccc2)C1 (racemic) [I-147 e8]
17,1 to 1000 nM,CC(=O)NS(=O)(=O)N1CCC(NC(=O)c2cc3c(Cl)c(Cl)ccc3n2C)(c2ccc(C(=O)O)cc2)CC1 [I-144 e11]
18,5000 to 10000 nM,CC(=O)NS(=O)(=O)N1CCC(NC(=O)c2cc3c(Cl)c(Cl)ccc3n2C)(c2cccc(N)c2)CC1 [I-145 e13]
19,5000 to 10000 nM,CC(=O)NS(=O)(=O)N1CC(NC(=O)c2cc3c(Cl)c(Cl)ccc3n2C)(c2ccccc2)C1 [I-148 e9]
20,5000 to 10000 nM,CC(=O)NS(=O)(=O)N1CCC(NC(=O)c2cc3c(Cl)c(Cl)ccc3n2C)(c2cccc(CO)c2)CC1 [I-149 e12]
21,5000 to 10000 nM,CC(=O)Nc1cccc(C2(NC(=O)c3cc4c(Cl)c(Cl)ccc4n3C)CCN(C(C)=O)CC2)c1 [I-150 e5]
22,1000 to 5000 nM,CC(=O)NS(=O)(=O)N1CCC(NC(=O)c2cc3c(Cl)c(Cl)ccc3n2C)(c2cccc(C(=O)O)c2)CC1 [I-151 e10]

row,SMILES,IC50
1,"Cn1c(C(=O)N[C@]2(c3ccc(C(=O)O)cc3)CCOC2)cc2c(Cl)c(Cl)ccc21 (single isomer, unassigned; peak 1) [I-133 or I-132 e146 peak 1]",1 to 1000 nM
2,"Cn1c(C(=O)N[C@@]2(c3ccc(C(=O)O)cc3)CCOC2)cc2c(Cl)c(Cl)ccc21 (single isomer, unassigned; peak 2) [I-132 or I-133 e147 peak 2]",1 to 1000 nM

# Target: T1, Full length (FL) 3-Phosphoglycerate Dehydrogenase (PHGDH)
# Experiment: Full length (FL) PHGDH Diaphorase coupled assay (500 uM NAD)
# Format: biochemical
# Conditions: full-length PHGDH 5 nM, 30° C. 60 minutes, resorufin fluorescence
# Protocol: Full length (FL) 3-Phosphoglycerate Dehydrogenase (PHGDH) Diaphorase coupled assay (500 uM NAD)
# as §1
# Briefly, serial dilution of compounds were incubated in a volume of 20 μL in 384 well plates with the assay mixture containing 5 nM PHGDH, 500 nM PSAT1, 500 nM PSPH, 500 μM NAD^+, 80 uM 3-phosphoglycerate, 1 mM glutamate, 57 uM Resazurin and 0.2 mg/ml Diaphorase in assay buffer containing 50 mM Trisethanoloamine (TEA) pH8.0, 10 mM MgCl2, 0.01% Tween-20 and 0.05% Bovine Serum Albumin (BSA). The plate was then incubated at 30° C. for 60 minutes and resorufin fluorescence was measured at emission wavelength 598 nm following excitation at 525 nm. The positive control consisted of the complete reaction mixture with 4% DMSO and was set to 0% inhibition.
row,IC50,SMILES
1,1 to 1000 nM,COc1cc2c(cc(C(=O)NC3(c4ccc(C(=O)O)cc4F)COC3)n2C)c(Cl)c1C [I-50 e75]
2,1 to 1000 nM,COc1cc2c(cc(C(=O)NC3(c4ccc(C(=O)O)cc4C)COC3)n2C)c(Cl)c1Cl [I-51 e68]
3,1 to 1000 nM,COc1cc2c(cc(C(=O)NC3(c4ccc(C(=O)O)cc4F)COC3)n2C)c(Cl)c1F [I-56 e78]
4,1 to 1000 nM,COc1ccc2c(cc(C(=O)NC3(c4ccc(C(=O)O)cc4C)COC3)n2C)c1Cl [I-60 e65]
5,1 to 1000 nM,COc1cc2c(cc(C(=O)NC3(c4ccc(CC(=O)O)cc4F)COC3)n2C)c(Cl)c1F [I-61 e47]
6,1 to 1000 nM,COc1cc2c(cc(C(=O)NC3(c4ccc(CC(=O)O)cc4F)COC3)n2C)c(Cl)c1C [I-62 e46]
7,1 to 1000 nM,Cc1ccc2c(cc(C(=O)NC3(c4ccc(CC(=O)O)cc4F)COC3)n2C)c1Cl [I-63 e44]
8,1 to 1000 nM,COc1ccc2c(cc(C(=O)NC3(c4ccc(C(=O)O)cc4Cl)COC3)n2C)c1Cl [I-65 e69]
9,1 to 1000 nM,COc1cc2c(cc(C(=O)NC3(c4ccc(C(=O)O)cc4Cl)COC3)n2C)c(Cl)c1Cl [I-66 e67]
10,5000 to 10000 nM,COc1cc(CC(=O)O)ccc1C1(NC(=O)c2cc3c(Cl)c(Cl)ccc3n2C)COC1 [I-69 e52]
11,1 to 1000 nM,CC(C(=O)O)c1ccc(C2(NC(=O)c3cc4c(Cl)c(Cl)ccc4n3C)COC2)c(F)c1 (stereo not drawn) [I-70 e61]
12,1 to 1000 nM,COc1ccc2c(cc(C(=O)NC3(c4ccc(C(=O)O)cc4F)COC3)n2C)c1Cl [I-75 e66]
13,1 to 1000 nM,COc1cc2c(cc(C(=O)NC3(c4ccc(C(=O)O)cc4F)COC3)n2C)c(Cl)c1Cl [I-76 e42]
14,1 to 1000 nM,Cn1c(C(=O)NC2(c3ccc(C(=O)O)cc3F)COC2)cc2c(Cl)c(Cl)ccc21 [I-79 e41]
15,1 to 1000 nM,Cc1cc(CC(=O)O)ccc1C1(NC(=O)c2cc3c(Cl)c(Cl)ccc3n2C)COC1 [I-82 e51]
16,1 to 1000 nM,Cc1cc(C(=O)O)ccc1C1(NC(=O)c2cc3c(Cl)c(Cl)ccc3n2C)COC1 [I-83 e50]
17,1 to 1000 nM,Cn1c(C(=O)NC2(c3ccc(CC(=O)O)cc3Cl)COC2)cc2c(Cl)c(Cl)ccc21 [I-84 e49]
18,1 to 1000 nM,Cn1c(C(=O)NC2(c3ccc(C(=O)O)cc3Cl)COC2)cc2c(Cl)c(Cl)ccc21 [I-85 e48]
19,1 to 1000 nM,COc1cc2c(cc(C(=O)NC3(c4ccc(CC(=O)O)cc4F)COC3)n2C)c(Cl)c1Cl [I-86 e45]
20,1 to 1000 nM,Cn1c(C(=O)NC2(c3ccc(CC(=O)O)cc3F)COC2)cc2c(Cl)c(Cl)ccc21 [I-90 e43]
21,1 to 1000 nM,COc1ccc2c(cc(C(=O)NC3(c4ccc(CC(=O)O)cc4)COC3)n2C)c1Cl [I-103 e39]
22,1 to 1000 nM,"CCC(=O)NS(=O)(=O)c1ccc(C2(NC(=O)c3cc4c(Cl)c(OC)ccc4n3C)COC2)cc1 [I-161 e164, 4-Chloro-5-methoxy-1-methyl-N-(3-(4-(N-propanoylsulfamoyl)phenyl)-oxetan-3-yl)-1H-indole-2-carboxamide]"
23,1 to 1000 nM,"COc1ccc2c(cc(C(=O)NC3(c4ccc(C(=O)NS(C)(=O)=O)cc4)COC3)n2C)c1Cl [I-162 e165, 4-Chloro-5-methoxy-1-methyl-N-(3-(4-((methylsulfonyl)carbamoyl)-phenyl)oxetan-3-yl)-1H-indole-2-carboxamide]"
24,1 to 1000 nM,COc1ccc2c(cc(C(=O)NC3(c4ccc(S(=O)(=O)NC(C)=O)cc4)COC3)n2C)c1Cl [I-164 e88]
